Our source for the TGI, outcome and GI50 values is PubChem BioAssay (NCI).

Where “and” joins values, the source holds several entries; their conditions need not be identical. Equal entries are not always repeated.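 Interpolation was linear, between the two tested concentrations surrounding the appropriate level; five concentrations were tested over 48 hours in 96-well plates. GI50 marks 50% less growth. TGI: concentration producing complete growth inhibition.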 Calls of active or inactive are those of the source. Rule as the data show it: active = GI50 below about 0.43 µM; inactive = the rest.

Common to all, as to experiment: inhibition of tumour cell growth, NCI panel, 48 h
The subject of test [1] is SF-295 CNS.
Test [2] concerns TK-10 renal.
Test [3] concerns NCI-H522 lung.
The subject of test [4] is SF-539 CNS.
Test [5] relates to SW-620 colon.
The subject of test [6] is SK-OV-3 ovarian.
Test [7] relates to U251 CNS.
In test [8] the test system is HCC-2998 colon.

Regarding `C[C@@H]1OC(=O)N2CCCC(=C3SCCCS3)C12` (some centres undefined), the TGI in test [1], in test [2], in test [3], in test [4], in test [5] and in test [6] was greater than 100 µM in each case. Also, the TGI in test [7] was greater than 100 µM.
For the molecule `COc1ccc(C(=O)C#Cc2cnc(OC)nc2OC)cc1`, the TGI in test [1] amounted to 24.8 µM; in test [6], 27.2 µM; in test [8] it was 3.83 µM; in test [7], 2.62 µM. Besides, the result in test [1], in test [6] and in test [8] was inactive. In addition, the GI50 in test [2] is 17700 µM; in test [3], 12700 µM; in test [5], 25200 µM; in test [7], 58900 µM.
Consider `COc1cc(Nc2nc3ccccc3nc2-c2cccs2)cc(OC)c1OC`, for which the TGI in test [1], in test [2], in test [4], in test [5], in test [6] and in test [8] was greater than 100 µM throughout. The molecule also yielded a TGI in test [7] greater than 10 µM.
Consider `COc1cc(C(=O)CBr)c(OC)cc1C`, for which the TGI in test [1], in test [2], in test [3], in test [4], in test [5] and in test [6] was greater than 100 µM each time. Besides, the TGI in test [7] was greater than 100 µM.
With `CC(C)(CO)N1CCN(C(=S)Nc2ccccc2)CC1`, the TGI in test [1], in test [2], in test [3], in test [4], in test [5] and in test [6] was greater than 100 µM each time. This molecule also came in with a TGI in test [7] greater than 100 µM.
With `Cc1cc(-c2cnn3c(NCC4CC(C)(O)C4)cc(Oc4cccnc4)nc23)ccc1C(=O)NC1CC1` (centres undefined), the GI50 was 3.28 µM in test [1]; 1.98 µM in test [2]; 5.08 µM in test [3]; 2.01 µM in test [4]; 0.591 µM in test [5]; 2.69 µM in test [6]. Moreover, in test [7], the GI50 is 4.18 µM. The TGI in test [1], in test [2], in test [3], in test [4], in test [5] and in test [6] was greater than 100 µM throughout. In test [7], this molecule had a TGI greater than 100 µM.
In the case of `O=[N+]([O-])c1ccc(C=NC2CCCCC2)cc1`, the TGI in test [1], in test [2], in test [4], in test [5], in test [6] and in test [8] was greater than 100 µM throughout. The TGI in test [7] was greater than 100 µM.
As to `COC1(OC)CC2OC1C1N=NN(C(=O)OC(C)(C)C)C21` (centres undefined), the TGI in test [1], in test [4], in test [5], in test [6], in test [8] and in test [7] was greater than 100 µM each time.
With `CCOC(=S)SSSC(=S)OCC`, the TGI in test [1], in test [2], in test [4], in test [5], in test [6] and in test [8] was greater than 100 µM in each case. Besides, in test [7], the TGI was greater than 100 µM.
As to `N#CC(C#N)=C1Nc2ccccc2S1`, the GI50 in test [1] is 24.3 µM; in test [2] it was 29.2 µM; in test [3], 32.4 µM; in test [4], 36.3 µM; in test [5], 40.1 µM; in test [6], 31.5 µM. The GI50 in test [7] is 43.6 µM. Further, the TGI is 69 µM in test [1]; 82.1 µM in test [2]; greater than 100 µM in test [3]; 93.7 µM in test [4]; greater than 100 µM in test [5]; greater than 100 µM in test [6]. The TGI in test [7] was greater than 100 µM.
Consider `O=C(CC1C(=O)NN(c2ccc(Br)cc2)C1=O)c1cc(O)ccc1O` (centres undefined), for which the GI50 in test [1] is 11 µM; in test [2] it was 15.5 µM; in test [3], 18.5 µM; in test [4], 11.3 µM; in test [5] it was 17.9 µM; in test [7] it was 14.2 µM. Also, the TGI in test [1] was 29.7 µM; in test [2], greater than 50 µM; in test [3], greater than 50 µM; in test [4], 27.3 µM; in test [5] it was greater than 50 µM; in test [7], 36 µM.
For the molecule `CN(C)CCNC(=O)c1cccc2ccc(-c3ccncc3)nc12`, the TGI turned out to be 14.8 µM in test [1]; 5.57 µM in test [2]; 9.64 µM in test [4]; 18.1 µM in test [5]; 6.95 µM in test [6]; 10.2 µM in test [8]. In addition, the TGI in test [7] was found to be 8.75 µM.
In the case of `O=C1c2cccc([N+](=O)[O-])c2C(=O)N1c1ncn[nH]1`, the TGI in test [1] is greater than 100 µM; in test [2] it was greater than 100 µM; in test [3], greater than 100 µM; in test [4], 36.8 µM; in test [5], greater than 100 µM; in test [6], greater than 100 µM. Further, in test [7], the TGI was greater than 100 µM.
In the case of `O=C1CCC(N2C(=O)c3ccccc3C2=O)C(=O)N1CO` (centres undefined), the GI50 in test [1] is greater than 100 µM; in test [2], greater than 100 µM; in test [3] it was greater than 100 µM; in test [4], 30.8 µM; in test [5], 32.4 µM; in test [6], greater than 100 µM. Further, the GI50 in test [7] is 90.8 µM. Further, the TGI in test [1] was greater than 100 µM; in test [2] it was greater than 100 µM; in test [3], greater than 100 µM; in test [4], 93.6 µM; in test [5], greater than 100 µM; in test [6] it was greater than 100 µM. Moreover, in test [7], the TGI is greater than 100 µM.
Regarding `NC(=O)NS(=O)(=O)c1ccc(N2N=C(C(F)(F)F)CC2c2cc(C(F)(F)F)cc(C(F)(F)F)c2)cc1` (centres undefined), the GI50 in test [2] is 9.25 µM; in test [4] it was 11.9 µM; in test [5] it was 4.1 µM; in test [6], 7.82 µM; in test [8], 10 µM; in test [7] it was 3.94 µM. In addition, the TGI in test [2] came out at 24.8 µM; in test [4] it was 24.7 µM; in test [5], 15.7 µM; in test [6] it was 21.3 µM; in test [8], 23.9 µM; in test [7], 15.2 µM.
Consider `Cc1c(C(=O)C/C(=N/NC(=O)C[N+](C)(C)C)C(=O)Nc2ccc(Cl)cc2)[n+](=O)c2ccccc2n1O`, for which the TGI in test [1], in test [2], in test [3], in test [4], in test [5] and in test [8] was greater than 100 µM each time. In test [7], this molecule gave a TGI greater than 100 µM.
Regarding `CCCC1N2CCCCC2[C@@H]2c3[nH]c4ccccc4c3CCN12` (some centres undefined), the TGI in test [1], in test [4], in test [5], in test [6], in test [8] and in test [7] was greater than 100 µM in each case.
Turning to `O=C1c2ccccc2C(=O)N1CCc1ncc[nH]1`, the TGI in test [1], in test [2], in test [3], in test [4] and in test [5] was greater than 100 µM each time.
In the case of `O=S(=O)(NC1=NCCN1C(=S)SN1CCn2c1nsc2=S)c1cccc(Cl)c1`, the GI50 is 21.8 µM in test [1]; 11.5 µM in test [2]; 5.58 µM in test [3]; 19.4 µM in test [4]; 22.9 µM in test [5]; 22.5 µM in test [8]. Further, the GI50 in test [7] is 13.6 µM. In addition, the TGI in test [1] is 58.1 µM; in test [2], 28.5 µM; in test [3], 18.4 µM; in test [4], 34.2 µM; in test [5] it was greater than 100 µM; in test [8], 37.3 µM. The TGI in test [7] turned out to be 27.8 µM.
With `O=C(CC1(O)C(=O)Nc2c(Cl)ccc(Cl)c21)c1ccc(F)cc1` (centres undefined), the TGI in test [1], in test [2], in test [3], in test [5], in test [6] and in test [8] was greater than 100 µM each time. Also, in test [7], the TGI is greater than 100 µM.
As to `O/N=C/c1ncccc1C1OCCO1`, the TGI in test [1], in test [2], in test [3], in test [4], in test [5] and in test [6] was greater than 100 µM throughout. Further, the TGI in test [7] is greater than 100 µM.
In the case of `O=C1C(Cl)=C(NCCN2CCOCC2)C(=O)c2ncccc21`, the TGI is 3.33 µM and 3.3 µM in test [1]; 3.44 µM and 30.3 µM in test [2]; 3.33 µM in test [4]; 6.42 µM and 6.22 µM in test [5]; 3.36 µM and 7.23 µM in test [6]; 2.85 µM and 3.47 µM in test [8]. Further, the TGI in test [7] was 3.12 µM and 3.3 µM. Moreover, the GI50 is 16.5 µM in test [2]; 2.45 µM in test [5]; 2.26 µM in test [6]; 1.73 µM in test [8]; 1.87 µM in test [7].
`COc1ccc2nc3c(C(=O)NCCN(C)C)cccc3nc2c1`: the TGI was found to be 39.1 µM in test [1]; 34.3 µM in test [2]; 10.9 µM in test [4]; 81.6 µM in test [5]; 47.4 µM in test [6]; 20 µM in test [8]. The TGI in test [7] was 29.5 µM.
